What all share (format): in vivo
Test [1] has as its system Echinochloa crus-galli (ECHCG). Nature of the test: Post-emergence biological efficacy, glasshouse pot test. The note with it: 312 h, Rate 1,000 g/ha, post-emergence spray, evaluated after 13 days (100=total damage to plant; 0=no damage to plant), read-out: Percentage damage caused to weed species, post-emergence, ECHCG. An outline of the steps:
(§1)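 Plants were sown in standard soil and grown 8 days in a glasshouse (24/16° C. day/night, 14 hours light, 65% humidity), then sprayed post-emergence at 1000 or 250 g/ha from acetone/water (50:50) with 0.5% Tween 20. Damage was scored visually after 13 days (0 = none, 100 = total).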

Test [2] deals with Setaria faberi (SETFA). The test is described as above. As to conditions: 312 h, Rate 1,000 g/ha, post-emergence spray, evaluated after 13 days (100=total damage to plant; 0=no damage to plant), read-out: Percentage damage caused to weed species, post-emergence, SETFA. Put shortly: as §1
Test [3] deals with Ipomea hederaceae (IPOHE). The description is as above. As to conditions: Ipomoea hederacea, 312 h; Rate 1,000 g/ha; post-emergence spray; evaluated after 13 days (100=total damage to plant; 0=no damage to plant); read-out: Percentage damage caused to weed species, post-emergence, IPOHE. Put shortly: as §1
Test [4] deals with Amaranthus retoflexus (AMARE). The test is described as above. The note with it: Amaranthus retroflexus, 312 h; Rate 1,000 g/ha; post-emergence spray; evaluated after 13 days (100=total damage to plant; 0=no damage to plant); read-out: Percentage damage caused to weed species, post-emergence, AMARE. An outline of the steps: as §1
Test [5] deals with Solanum nigrum (SOLNI). The description is as above. As to conditions: 312 h, Rate 1,000 g/ha, post-emergence spray, evaluated after 13 days (100=total damage to plant; 0=no damage to plant), read-out: Percentage damage caused to weed species, post-emergence, SOLNI. An outline of the steps: as §1
Test [6] has as its system Alopecurus myosuroides (ALOMY). Described as above. As to conditions: 312 h, Rate 1,000 g/ha, post-emergence spray, evaluated after 13 days (100=total damage to plant; 0=no damage to plant), read-out: Percentage damage caused to weed species, post-emergence, ALOMY. An outline of the steps: as §1
For test [7], the system named is Echinochloa crus-galli (ECHCG). Nature of the test: Pre-emergence biological efficacy, glasshouse pot test. As to conditions: 312 h, pre-emergence, rate 1,000 g/ha, evaluated after 13 days (100=total damage to plant; 0=no damage), read-out: Percentage damage caused to weed species, ECHCG. Put shortly: (§2)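 Compound was applied as a spray one day after sowing, at a final dose of 1000 or 250 g/ha. Plants grew under 14 h light, 24/16 °C and 65% humidity, and injury was assessed on day 13 on a 0–100 scale.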

Test [8] has as its system Setaria faberi (SETFA). Described as above. The note with it: 312 h, pre-emergence, rate 1,000 g/ha, evaluated after 13 days (100=total damage to plant; 0=no damage), read-out: Percentage damage caused to weed species, SETFA. An outline of the steps: as §2
The subject of test [9] is Ipomea hederaceae (IPOHE). The test is described as above. The note with it: Ipomoea hederacea, 312 h; pre-emergence, rate 1,000 g/ha, evaluated after 13 days (100=total damage to plant; 0=no damage); read-out: Percentage damage caused to weed species, IPOHE. An outline of the steps:
as §2

Test [10] deals with Amaranthus retoflexus (AMARE). The test is described as above. As to conditions: Amaranthus retroflexus, 312 h; pre-emergence, rate 1,000 g/ha, evaluated after 13 days (100=total damage to plant; 0=no damage); read-out: Percentage damage caused to weed species, AMARE. Put shortly: as §2
The subject of test [11] is Solanum nigrum (SOLNI). Described as above. As to conditions: 312 h, pre-emergence, rate 1,000 g/ha, evaluated after 13 days (100=total damage to plant; 0=no damage), read-out: Percentage damage caused to weed species, SOLNI. Put shortly:
as §2

Test [12] has as its system Alopecurus myosuroides (ALOMY). Described as above. As to conditions: 312 h, pre-emergence, rate 1,000 g/ha, evaluated after 13 days (100=total damage to plant; 0=no damage), read-out: Percentage damage caused to weed species, ALOMY. Put shortly: as §2

As for `COCCN(C/C=C/c1ccco1)c1nc(C2CC2)nc(C(=O)OC)c1Cl` [Compound 160-256, 5-Chloro-2-cyclopropyl-4-[N-(3-furan-2-yl-prop-2-enyl)-N-2-methoxyethyl-amino]-6-methoxycarbonyl-pyrimidine], the pest or weed control at 1000 g/ha in test [1] is 0%; in the test with Setaria faberi (SETFA) [2], 40%; in [3], 50%; in test [4] it was 90%; in the test with Solanum nigrum (SOLNI) [5], 60%; in [6], 0%. Besides, the pest or weed control at 1000 g/ha in test [7] came out at 0%; in the test on Setaria faberi (SETFA) [8], 0%; in [9], 10%; in test [10] it was 20%; with Solanum nigrum (SOLNI) [11], 10%; in test [12], 10%.

With `COC(=O)c1nc(C2CC2)nc(N(CCC#N)Cc2ccccc2)c1Cl` [Compound 161-60, 5-Chloro-4-[N-(2-cyanoethyl)-N-phenylmethyl-amino]-2-cyclopropyl-6-methoxycarbonyl-pyrimidine], the pest or weed control at 1000 g/ha in test [1] came out at 50%; in the test with Setaria faberi (SETFA) [2] it was 50%; in [3] it was 70%; in [4] it was 90%; in the test with Solanum nigrum (SOLNI) [5], 80%; in test [6], 20%. The pest or weed control at 1000 g/ha (in test [7]; in the test with Setaria faberi (SETFA) [8]; in test [9]; in test [10]; in the test with Solanum nigrum (SOLNI) [11]; in [12]) was 0% each time.

Take `COC(=O)c1nc(C2CC2)nc(N(CCC#N)Cc2ccco2)c1Cl` [Compound 161-125, 5-Chloro-4-[N-(2-cyanoethyl)-N-furan-2-ylmethyl-amino]-2-cyclo-propyl-6-methoxy-carbonylpyrimidine]: the pest or weed control at 1000 g/ha in test [1] is 10%; in the test with Setaria faberi (SETFA) [2], 40%; in test [3], 40%; in test [4], 80%; with Solanum nigrum (SOLNI) [5], 50%; in test [6], 0%. Further, the pest or weed control at 1000 g/ha in test [7] was determined as 20%; in the test on Setaria faberi (SETFA) [8], 0%; in test [9] it was 80%; in test [10], 100%; with Solanum nigrum (SOLNI) [11], 30%; in [12], 20%.

Consider `CCOC(=O)CCN(Cc1ccccc1)c1nc(C2CC2)nc(C(=O)OC)c1Cl` [Compound 162-60, 5-Chloro-2-cyclopropyl-4-[N-(2-ethoxycarbonyl-ethyl)-N-phenylmethyl-amino]-6-methoxycarbonyl-pyrimidine], for which the pest or weed control at 1000 g/ha was found to be 0% in test [1]; 0% with Setaria faberi (SETFA) [2]; 70% in test [3]; 80% in test [4]; 60% in the test with Solanum nigrum (SOLNI) [5]; 10% in test [6]. Further, the pest or weed control at 1000 g/ha in test [7] worked out at 20%; with Setaria faberi (SETFA) [8], 0%; in test [9], 70%; in [10] it was 40%; in the test on Solanum nigrum (SOLNI) [11], 20%; in [12], 10%.
